In patent publication US4923865A, “Substituted 1-(1H-imidazol-4-yl)alkyl-benzamides as anti-ischemics and as alpha-2-adrenergic receptor agonists” (U C B Societe Anonyme, priority 1988, dated 1990):
pIC50: −log10 of the molar value. Read-outs that look alike come from different tables or passages of the source.

What was measured:
[1] = system: stenosis at the level of a coronary artery; assay: Effort trial on a moving belt in dogs with coronary artery stenosis; type: in vivo, dog; details: dose 0.018 μmole/kg i.v.; maximum effort at 12 Km/h for 1 minute
Experimental: (b) Effort trial on a moving belt. In this test, a group of at least four dogs is used (equipped with intracardiac electrodes), the dogs having an organic stenosis at the level of a coronary artery. This stenosis causes imbalance between the demand and supply of oxygen when the animal is required to make an effort. This imbalance is expressed on the electrocardiogram by an increase in the ST-segment.
In the trial, the dog runs at a speed of 12 km/h on a moving belt having a slope of 15°. This maximum effort is required for one minute. During the trial, the increase in the ST-segment is recorded, together with the natural increase in the pulse rate. The experiment is repeated at least four times, and the mean of the values obtained is taken as reference (100%) for the group of animals. The animals are then allowed to rest for a minimum of 24 hours before being subjected to a new effort trial under the influence of the compound to be studied.
The compound to be studied is administered slowly (over 1 minute) by intravenous injection 5 minutes before the new effort trial. In the course of the latter, the variations in the same parameters are recorded.

[2] = system: cerebral ischemia; assay: General and permanent cerebral ischemia in rat (ligature of the two common carotid arteries); type: in vivo, male Wistar rats; details: 0.76 μg/kg (3.2 nmoles) i.p.; maximum score 17; control 12; P 0.005
Experimental: (a) General and permanent cerebral ischemia in rat. Male Wistar rats (200 to 250 g) are anesthetized by inhalation of halothane (1 to 5%) contained in a N2 O--O2 (70:30) mixture. The two common carotid arteries are ligatured simultaneously close to the passage between the internal carotid and external carotid using the method described by M. LE PONCIN-LAFITTE et al., J. Pharmacol. (Paris), 14, (1983), 99-102.
The compound to be tested is administered intraperitoneally for a first time 30 minutes before making the ligatures, and subsequently 30 minutes and 270 minutes after making the ligatures. On the next day, and on the day after the next, the neurological deficit in the surviving animals is evaluated by the method described by C. CAPDEVILLE et al., J. Pharmacol. (Paris), 15, (1984), 231-237, and by B. KOLB et al., Neurobehav. Toxicol. Teratol. 7, (1985), 71-78. […] Table III gives for compound A, administered intraperitoneally at a dose of 0.76 μg/kg (3.2 nmoles), the mean of the neurological scores determined for the whole group of surviving animals of the control group and of the treated group, as recorded two days after the ligatures. The statistical significance (P) of the difference observed between these mean values is evaluated by the Mann-Whitney test.

[3] = target: T1, presynaptic α2 -adrenergic receptors (Cavia porcellus, UniProt Q60474); assay: Inhibition of the contraction of electrically stimulated guinea-pig ileum
T1 construct: Stimulation of a guinea-pig ileum; from tissue; host or cells: guinea-pig ileum longitudinal muscle strips
T1 sequence (Q60474 1-464): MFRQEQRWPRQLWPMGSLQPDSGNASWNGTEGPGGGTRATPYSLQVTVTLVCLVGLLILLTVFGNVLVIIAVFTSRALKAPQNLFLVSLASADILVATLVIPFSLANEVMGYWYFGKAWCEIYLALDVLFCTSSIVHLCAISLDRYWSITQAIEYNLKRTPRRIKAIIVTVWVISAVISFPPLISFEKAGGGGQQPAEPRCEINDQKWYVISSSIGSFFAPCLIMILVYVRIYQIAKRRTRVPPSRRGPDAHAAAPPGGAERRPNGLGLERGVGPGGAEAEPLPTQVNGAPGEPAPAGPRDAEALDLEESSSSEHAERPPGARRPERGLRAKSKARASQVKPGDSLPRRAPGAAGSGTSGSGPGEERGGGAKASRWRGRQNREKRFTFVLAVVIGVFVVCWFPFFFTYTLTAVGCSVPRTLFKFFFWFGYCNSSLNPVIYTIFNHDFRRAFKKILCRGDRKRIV
Description: (c) Stimulation of a guinea-pig ileum. Longitudinal muscles strips attached to an isometric strain gauge are suspended in Tyrode's solution and are stretched under a tension of 1 g (G. M. DREW. Brit. J. Pharmacol. 64, (1978), 293-300; M. ANDREJAK et al., Naunyn-Schmiedelberg's Arch. Pharmacol. 314, (1980), 83-87).
Electrical stimulation of the parasympathetic nerves associated with the ileum fragments causes a contraction of the muscle. This contraction is reduced in the presence of a presynaptic α2 -agonist and the magnitude by which the contraction is reduced depends on the concentration of the agonist used. This effect is antagonized by the simultaneous presence of an α2 -antagonist such as α-yohimbine. The compounds to be studied have been tested at increasing concentrations ranging from 10^-10 to 10^-3 mole/l.
The concentration (IC50 in mole/l) that reduces by 50% the intensity of the contraction of the muscle is determined.
In the presence of α-yohimbine at a concentration of 10^-6 mole/l, the concentration of the compounds A or B, for example, that is required for reducing muscle contraction intensity by 50% is higher, and becomes greater than 10^-6 mole/l, which gives additional confirmation that the compounds of the invention act really at the level of the presynaptic α2 -adrenergic receptors.

[4] = system: myocardial ischemia; assay: Artificially induced acute coronary insufficiency in an awake dog (ST-segment elevation); type: in vivo; details: Canis lupus familiaris, 0.1 h, intravenous, 6 min coronary occlusion, groups of ten animals, read-out: DE20 (dose producing a mean reduction of at least 20% of the ST-segment elevation)
Description: Because of the reduction in the oxygen supply which results from this, the occlusion produces myocardial ischemia which is expressed on the electrocardiogram by a reproducible and quantifiable ST-segment elevation. The anti-ischemic action of a compound results in a reduction of the magnitude of the ST-segment elevation. (P. R. MAROKO and E. BRAUNWALD, Circulation, 53, (1976, Suppl. I), 162-168; S. E. EPSTEIN et al., Circulation, 53, (1976, Suppl. I), 191-197).

Cl.NC(=O)c1cccc(Cc2c[nH]cn2)c1O [A, 2-hydroxyl-3-[(1H-imidazol-4-yl)methyl]-benzamide hydrochloride]
reduction in ST-segment [1]: 74%
reduction in the pulse rate [1]: 3 beats/min.
Neurological scores after 2 days [2]: 15
pIC50 ([3]; guinea-pig ileum, electrical stimulation, read-out: IC50 (reduces by 50% the intensity of the contraction of the muscle)): 8.15
pIC50 ([3]; in the presence of 10^-6 mole/l of α-yohimbine, read-out: concentration required for reducing muscle contraction intensity by 50%): < 6.00
ED20 [4]: 0.03 µmol/kg
